According to patent US20200405696A1, “INHIBITORS OF INDOLEAMINE 2,3-DIOXYGENASE AND/OR TRYPTOPHAN 2,3-DIOXYGENASE” (IDORSIA PHARMACEUTICALS LTD, priority 2018, published 2020):

Experiments:
[1] = target: T1, Recombinant human TDO comprising amino acids 19-407 (Homo sapiens, UniProt P48775); assay: TDO2 enzymatic assay (NFK quantified by LCMS); assay type: biochemical; details: 15 nM enzyme, 200 μM L-tryptophan, pH7, 30 minutes pre-incubation at RT; mean values when measured multiple times; read-out: hTDO activity (IC50 in nM)
T1 construct: Recombinant human TDO comprising amino acids 19-407 with a N-terminal hexahistidine tag; hexahistidine (His6) (N); made in house; host or cells: E. coli
T1 sequence (P48775 19-406 limits assumed): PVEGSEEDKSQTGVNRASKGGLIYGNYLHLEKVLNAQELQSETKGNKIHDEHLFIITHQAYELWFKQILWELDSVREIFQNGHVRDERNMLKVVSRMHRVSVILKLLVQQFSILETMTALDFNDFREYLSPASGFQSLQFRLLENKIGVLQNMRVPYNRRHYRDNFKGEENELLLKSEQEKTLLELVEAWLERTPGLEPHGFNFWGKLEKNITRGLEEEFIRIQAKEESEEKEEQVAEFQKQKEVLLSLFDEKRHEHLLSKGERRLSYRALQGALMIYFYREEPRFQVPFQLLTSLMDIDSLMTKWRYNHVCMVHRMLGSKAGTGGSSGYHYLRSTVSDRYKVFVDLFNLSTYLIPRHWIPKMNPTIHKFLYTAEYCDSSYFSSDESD
Procedure, shortened: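 NFK formed over 30 min at RT from 200 μM L-tryptophan was measured by LCMS, normalized to d5-tryptophan, after compound (0.5 nM–10 μM, duplicates, 0.6% DMSO) was preincubated 30 min with 15 nM recombinant His-tagged TDO 19-407 in phosphate buffer pH 7. IC50 from four-parameter logistic fit; repeats averaged.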

[2] = target: T2, Recombinant full-length human IDO1 (Homo sapiens, UniProt P14902); assay: IDO1 enzymatic assay (NFK quantified by LCMS); assay type: biochemical; details: 2 nM enzyme, 5 μM L-tryptophan, pH6.5, 30 minutes pre-incubation at RT; mean values when measured multiple times; read-out: hIDO activity (IC50 in nM)
T2 construct: Recombinant full-length human IDO1 with a N-terminal hexahistidine tag; hexahistidine (His6) (N); made in house; host or cells: E. coli
T2 sequence (P14902 whole entry): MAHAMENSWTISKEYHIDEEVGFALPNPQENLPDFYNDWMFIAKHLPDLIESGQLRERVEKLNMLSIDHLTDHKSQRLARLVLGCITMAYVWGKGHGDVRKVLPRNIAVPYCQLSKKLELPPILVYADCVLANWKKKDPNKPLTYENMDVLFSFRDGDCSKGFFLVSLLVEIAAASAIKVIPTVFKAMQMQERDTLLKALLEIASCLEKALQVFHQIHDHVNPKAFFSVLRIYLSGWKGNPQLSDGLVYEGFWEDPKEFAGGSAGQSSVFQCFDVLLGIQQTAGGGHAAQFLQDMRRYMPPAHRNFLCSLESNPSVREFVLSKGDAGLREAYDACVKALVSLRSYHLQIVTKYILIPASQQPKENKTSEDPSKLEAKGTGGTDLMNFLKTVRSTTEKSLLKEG
Procedure, shortened: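 IC50 comes from four-parameter logistic fits of duplicate data, with NFK quantified by LCMS and normalized to L-Trp-(indole-d5). Compound (0.5 nM–10 μM) was preincubated 30 min at RT with 2 nM E. coli-expressed IDO1 before a 30 min reaction with 5 μM tryptophan in pH 6.5 buffer containing ascorbate and methylene blue.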

| IC50 [1] | IC50 [2] | SMILES |
| --- | --- | --- |
| > 10200 nM | 704 nM | COc1ccc(-n2cc(C(O)c3c(-c4ccc(F)cc4)sc4cncn34)nn2)cc1 (racemic) [Example 286, rac-[2-(4-Fluoro-phenyl)-imidazo[5,1-b]thiazol-3-yl]-[1-(4-methoxy-phenyl)-1H-[1,2,3]triazol-4-yl]-methanol] |
| > 10200 nM | 200 nM | COc1ccc(-n2cc(C(O)c3c(C4CC4)sc4cncn34)nn2)nc1OC (racemic) [Example 66, rac-(2-Cyclopropyl-imidazo[5,1-b]thiazol-3-yl)-[1-(5,6-dimethoxy-pyridin-2-yl)-1H-[1,2,3]triazol-4-yl]-methanol] |
| > 10200 nM | 17.6 nM | C=C(C)c1sc2cncn2c1C(O)c1cn(-c2ccc(OCCC(C)(C)O)c(Cl)c2)nn1 (racemic) [Example 293, rac-4-(2-Chloro-4-{4-[hydroxy-(2-isopropenyl-imidazo[5,1-b]thiazol-3-yl)-methyl]-[1,2,3]triazol-1-yl}-phenoxy)-2-methyl-butan-2-ol] |
| > 10200 nM | 13.3 nM | OC(c1cn(-c2ccc(OCCC3(O)CC3)cc2)nn1)c1c(C2CC2)sc2cncn12 (racemic) [Example 142, rac-1-[2-(4-{4-[(2-Cyclopropyl-imidazo[5,1-b]thiazol-3-yl)-hydroxy-methyl]-[1,2,3]triazol-1-yl}-phenoxy)-ethyl]-cyclopropanol] |
| > 10200 nM | 28.8 nM | CCc1sc2cncn2c1C(O)c1cn(-c2ccc(C(=O)NC)cc2)nn1 (racemic) [Example 111, rac-4-{4-[(2-Ethyl-imidazo[5,1-b]thiazol-3-yl)-hydroxy-methyl]-[1,2,3]triazol-1-yl}-N-methyl-benzamide] |
| > 10200 nM | 18.4 nM | CC(=O)c1ccc(-n2cc(C(O)c3c(C4CC4)sc4cncn34)nn2)cc1 (racemic) [Example 10, rac-1-(4-{4-[(2-Cyclopropyl-imidazo[5,1-b]thiazol-3-yl)-hydroxy-methyl]-[1,2,3]triazol-1-yl}-phenyl)-ethanone] |
| > 10200 nM | 47.2 nM | CCc1sc2cncn2c1C(O)c1cn(-c2ccc(S(=O)(=O)NC)cc2)nn1 (racemic) [Example 225, rac-4-{4-[(2-Ethyl-imidazo[5,1-b]thiazol-3-yl)-hydroxy-methyl]-[1,2,3]triazol-1-yl}-N-methyl-benzenesulfonamide] |
| > 10200 nM | 78.1 nM | O=C(c1ccc(-n2cc(C(O)c3c(C4CC4)sc4cncn34)nn2)cc1)N1CCOCC1 (racemic) [Example 103, rac-(4-{4-[(2-Cyclopropyl-imidazo[5,1-b]thiazol-3-yl)-hydroxy-methyl]-[1,2,3]triazol-1-yl}-phenyl)-morpholin-4-yl-methanone] |
| > 10200 nM | 7.31 nM | CC(C)(O)CCOc1ccc(-n2cc([C@H](O)c3c(C4CC4)sc4cncn34)nn2)cc1 [Example 140a, 4-(4-{4-[(R)-(2-Cyclopropyl-imidazo[5,1-b]thiazol-3-yl)-hydroxy-methyl]-[1,2,3]triazol-1-yl}-phenoxy)-2-methyl-butan-2-ol] |
| 9290 nM | 4.83 nM | Oc1ccc(-n2cc(C(O)c3c(C4CC4)sc4cncn34)nn2)cc1F (racemic) [Example 150, rac-4-{4-[(2-Cyclopropyl-imidazo[5,1-b]thiazol-3-yl)-hydroxy-methyl]-[1,2,3]triazol-1-yl}-2-fluoro-phenol] |
| 1940 nM | 121 nM | COc1ccc(-n2cc(C(O)c3c(C)sc4cncn34)cn2)cc1 (racemic) [Example 97, rac-[1-(4-Methoxy-phenyl)-1H-pyrazol-4-yl]-(2-methyl-imidazo[5,1-b]thiazol-3-yl)-methanol] |
| > 10200 nM | 8.46 nM | CC(C)(O)CCOc1ccc(-n2cc(C(O)c3c(C4CC4)sc4cncn34)nn2)cc1 (racemic) [Example 140, rac-4-(4-{4-[(2-Cyclopropyl-imidazo[5,1-b]thiazol-3-yl)-hydroxy-methyl]-[1,2,3]triazol-1-yl}-phenoxy)-2-methyl-butan-2-ol] |
| > 10200 nM | 422 nM | Cc1sc2cncn2c1C(O)c1cn(-c2ccc(N3CCOCC3)cc2)nn1 (racemic) [Example 56, rac-(2-Methyl-imidazo[5,1-b]thiazol-3-yl)-[1-(4-morpholin-4-yl-phenyl)-1H-[1,2,3]triazol-4-yl]-methanol] |
| > 10200 nM | 108 nM | CCc1sc2cncn2c1C(O)c1cn(-c2ccc(C(=O)N(C)C)cc2)nn1 (racemic) [Example 114, rac-4-{4-[(2-Ethyl-imidazo[5,1-b]thiazol-3-yl)-hydroxy-methyl]-[1,2,3]triazol-1-yl}-N,N-dimethyl-benzamide] |
| > 10200 nM | 36.1 nM | CC(C)Oc1ncc(-n2cc(C(O)c3c(C4CC4)sc4cncn34)nn2)cc1Cl (racemic) [Example 73, rac-[1-(5-Chloro-6-isopropoxy-pyridin-3-yl)-1H-[1,2,3]triazol-4-yl]-(2-cyclopropyl-imidazo[5,1-b]thiazol-3-yl)-methanol] |
| > 10200 nM | 5.36 nM | O=c1[nH]c2ccc(-n3cc(C(O)c4c(C5CC5)sc5cncn45)nn3)cc2o1 (racemic) [Example 179, rac-6-{4-[(2-Cyclopropyl-imidazo[5,1-b]thiazol-3-yl)-hydroxy-methyl]-[1,2,3]triazol-1-yl}-3H-benzooxazol-2-one] |
| > 10200 nM | 586 nM | OC(c1nnc(-c2ccccc2)o1)c1c(C2CC2)sc2cncn12 (racemic) [Example 157, rac-(2-Cyclopropyl-imidazo[5,1-b]thiazol-3-yl)-(5-phenyl-[1,3,4]oxadiazol-2-yl)-methanol] |
| 7150 nM | 17 nM | Cc1c(C(O)c2c(C3CC3)sc3cncn23)nnn1-c1ccccc1 (racemic) [Example 101, rac-(2-Cyclopropyl-imidazo[5,1-b]thiazol-3-yl)-(5-methyl-1-phenyl-1H-[1,2,3]triazol-4-yl)-methanol] |
| > 10200 nM | 27.2 nM | CC(C)(CO)COc1ccc(-n2cc(C(O)c3c(C4CC4)sc4cncn34)nn2)cc1 (racemic) [Example 141, rac-3-(4-{4-[(2-Cyclopropyl-imidazo[5,1-b]thiazol-3-yl)-hydroxy-methyl]-[1,2,3]triazol-1-yl}-phenoxy)-2,2-dimethyl-propan-1-ol] |
| > 10200 nM | 17.2 nM | OC(c1cn(-c2ccc3[nH]ncc3c2)nn1)c1c(C2CC2)sc2cncn12 (racemic) [Example 253, rac-(2-Cyclopropyl-imidazo[5,1-b]thiazol-3-yl)-[1-(1H-indazol-5-yl)-1H-[1,2,3]triazol-4-yl]-methanol] |
| > 10200 nM | 109 nM | CCN(C)C(=O)c1ccc(-n2cc(C(O)c3c(C4CC4)sc4cncn34)nn2)cc1 (racemic) [Example 191, rac-4-{4-[(2-Cyclopropyl-imidazo[5,1-b]thiazol-3-yl)-hydroxy-methyl]-[1,2,3]triazol-1-yl}-N-ethyl-N-methyl-benzamide] |
| 7720 nM | 14.3 nM | CCNC(=O)Nc1ccc(-n2cc(C(O)c3c(CC)sc4cncn34)nn2)cc1OC (racemic) [Example 113, rac-1-Ethyl-3-(4-{4-[(2-ethyl-imidazo[5,1-b]thiazol-3-yl)-hydroxy-methyl]-[1,2,3]triazol-1-yl}-2-methoxy-phenyl)-urea] |
| > 10200 nM | 406 nM | Cc1sc2cncn2c1C(O)c1cc(-c2ccccc2)no1 (racemic) [Example 156, rac-(2-Methyl-imidazo[5,1-b]thiazol-3-yl)-(3-phenyl-isoxazol-5-yl)-methanol] |
| > 10200 nM | 493 nM | Cc1sc2cncn2c1C(O)c1cn(-c2cncc3ccccc23)nn1 (racemic) [Example 61, rac-(1-Isoquinolin-4-yl-1H-[1,2,3]triazol-4-yl)-(2-methyl-imidazo[5,1-b]thiazol-3-yl)-methanol] |
| > 10200 nM | 20.2 nM | CCOc1ccc(-n2cc(C(O)c3c(C4CC4)sc4cncn34)nn2)cn1 (racemic) [Example 42, rac-(2-Cyclopropyl-imidazo[5,1-b]thiazol-3-yl)-[1-(6-ethoxy-pyridin-3-yl)-1H-[1,2,3]triazol-4-yl]-methanol] |
| > 10200 nM | 496 nM | OC(c1nc(-c2ccccc2)no1)c1c(C2CC2)sc2cncn12 (racemic) [Example 163, rac-(2-Cyclopropyl-imidazo[5,1-b]thiazol-3-yl)-(3-phenyl-[1,2,4]oxadiazol-5-yl)-methanol] |
| > 10200 nM | 145 nM | CN(C)C(=O)c1ccc(-n2cc(C(O)c3c(C4CC4)sc4cncn34)nn2)cc1 (racemic) [Example 195, rac-4-{4-[(2-Cyclopropyl-imidazo[5,1-b]thiazol-3-yl)-hydroxy-methyl]-[1,2,3]triazol-1-yl}-N,N-dimethyl-benzamide] |
| > 10200 nM | 12.9 nM | COCCOc1ccc(-n2cc(C(O)c3c(C4CC4)sc4cncn34)nn2)cc1 (racemic) [Example 91, rac-(2-Cyclopropyl-imidazo[5,1-b]thiazol-3-yl)-{1-[4-(2-methoxy-ethoxy)-phenyl]-1H-[1,2,3]triazol-4-yl}-methanol] |
